# Article PMC8975978, “Bioassay-guided isolation of cytotoxic constituents from the flowers of Aquilaria sinensis” (Natural Products and Bioprospecting, 2022)
# Where two headings read alike, the source gives them in different places.
# Key:
# [1] = test system: human normal bronchial epithelial BEAS-2B cells; assay: MTS cytotoxicity assay, normal BEAS-2B; type: cell-based
# Procedure: (§1) It had better inhibition against lung cancer cell lines than against other cancer cell lines (Table 1). Thus, the next bioactivity-guided separations were conducted according to the cytotoxicities of the fractions against lung cancer cell lines (A-549, NCI-H520, and SPC-A-1), as well as normal BEAS-2B cells and paclitaxel-resistant lung cancer A549/Taxol cells.
# (§2) The cytotoxicity activities were evaluated by MTS assay as previously described.
# [2] = test system: human lung adenocarcinoma SPC-A-1 cells; assay: MTS cytotoxicity assay, SPC-A-1; type: cell-based
# Procedure: as §1, §2
# [3] = test system: SPC-A-1, NCI-H520, A549 and A549/Taxol cell lines; assay: MTS cytotoxicity assay, four tested lung cancer cell lines together; type: cell-based, human; settings: four tested cancer cell lines taken together (SPC-A-1, NCI-H520, A549, A549/Taxol)
# Procedure: Thus, the next bioactivity-guided separations were conducted according to the cytotoxicities of the fractions against lung cancer cell lines (A-549, NCI-H520, and SPC-A-1), as well as normal BEAS-2B cells and paclitaxel-resistant lung cancer A549/Taxol cells.
# Isolates 1–6 were evaluated for their cytotoxicities against SPC-A-1, NCI-H520, A549, A549/Taxol, and BEAS-2B cell lines (Table 5).
# as §2
# [4] = test system: human lung adenocarcinoma A549 cells; assay: MTS cytotoxicity assay, A549; type: cell-based
# Procedure: as §1, §2
# [5] = test system: paclitaxel-resistant A549 (A549/Taxol) cells; assay: MTS cytotoxicity assay, A549/Taxol; type: cell-based, human
# Procedure: as §1, §2
# [6] = test system: human lung squamous cell carcinoma NCI-H520 cells; assay: MTS cytotoxicity assay, NCI-H520; type: cell-based
# Procedure: as §1, §2
# [7] = test system: human hepatoma SMMC-7721 cells; assay: MTS cytotoxicity assay, SMMC-7721; type: cell-based; settings: Table 1, SMMC-7721
# [8] = test system: human leukemia HL-60 cells; assay: MTS cytotoxicity assay, HL-60; type: cell-based; settings: Table 1, HL-60
# Procedure: as §1, §2
# [9] = test system: human neuroblastoma SH-SY5Y cells; assay: MTS cytotoxicity assay, SH-SY5Y; type: cell-based; settings: Table 1, SH-SY5Y
# Procedure: as §1, §2
# [10] = test system: human ovarian carcinoma SK-OV-3 cells; assay: MTS cytotoxicity assay, SK-OV-3; type: cell-based; settings: Table 1, SK-OV-3
# Procedure: as §1, §2
# [11] = test system: human breast cancer MDA-MB-231 cells; assay: MTS cytotoxicity assay, MDA-MB-231; type: cell-based; settings: Table 1, MDA-MB-231
# Procedure: as §1, §2
# [12] = test system: human small cell lung cancer NCI-H446 cells; assay: MTS cytotoxicity assay, NCI-H446; type: cell-based; settings: Table 1, NCI-H446
# Procedure: as §1, §2
# [13] = test system: human colon cancer SW-480 cells; assay: MTS cytotoxicity assay, SW480; type: cell-based; settings: Table 1, SW480
# Procedure: as §1, §2
# [14] = test system: human prostate cancer PC-3 cells; assay: MTS cytotoxicity assay, PC-3; type: cell-based; settings: Table 1, PC-3
# Procedure: as §1, §2
# [15] = test system: human T-cell leukemia MT4 cells; assay: MTS cytotoxicity assay, MT4; type: cell-based; settings: Table 1, MT4
# Procedure: as §1, §2
# [16] = test system: human large cell lung carcinoma NCI-H460 cells; assay: MTS cytotoxicity assay, NCI-H460; type: cell-based; settings: Table 1, NCI-H460
# Procedure: as §1, §2
# [17] = test system: human breast cancer MCF-7 cells; assay: MTS cytotoxicity assay, MCF-7; type: cell-based; settings: Table 1, MCF-7
# Procedure: as §1, §2
# [18] = test system: human cervical cancer HeLa cells; assay: MTS cytotoxicity assay, HeLa; type: cell-based; settings: Table 1, HeLa
# Procedure: as §1, §2
# [19] = Homo sapiens, Table 5, BEAS-2B normal cells, read-out: IC50
# [20] = Homo sapiens, SPCA1, Table 5, SPC-A-1, read-out: IC50
# [21] = Homo sapiens, A549, Table 5, A549, read-out: IC50
# [22] = Homo sapiens, A549/Taxol, Table 5, A549/Taxol, read-out: IC50
# [23] = Homo sapiens, NCI-H520, Table 5, NCI-H520, read-out: IC50
# [24] = Table 5, BEAS-2B normal cells, read-out: IC50
# [25] = Table 5, SPC-A-1, read-out: IC50
# [26] = Table 5, A549/Taxol, read-out: IC50
# [27] = Table 5, NCI-H520, read-out: IC50
molecule,measurement,setting,value
"CC(=O)OC(C)(C)CCC(=O)[C@](C)(O)[C@H]1[C@H](O)C[C@@]2(C)[C@@H]3CC=C4[C@@H](C=C(O)C(=O)C4(C)C)[C@]3(C)C(=O)C[C@]12C [Compound 2, 23,24-dihydrocucurbitacin E]",IC50,[1]; [19],> 40000 nM
same,IC50,[2]; [20],> 40000 nM
same,IC50,[3],inactive
same,IC50,[4]; [21],> 40000 nM
same,IC50,[5]; [22],> 40000 nM
same,IC50,[6]; [23],> 40000 nM
"COc1ccc(CCc2cc(=O)c3cc(OC)c(O)cc3o2)cc1 [Compound 6, 7-hydroxy-6-methoxy-2-[2-(4-methoxyphenyl)ethyl]-4H-1-benzopyran-4-one]",IC50,"[1]; Homo sapiens, BEAS-2B, Table 5, BEAS-2B normal cells, read-out: IC50",> 40000 nM
same,IC50,[2]; [20],1130 ± 30 nM
same,IC50,"[4]; Homo sapiens, Table 5, A549, read-out: IC50",1520 ± 60 nM
same,IC50,[5]; [22],910 ± 10 nM
same,IC50,"[6]; Homo sapiens, Table 5, NCI-H520, read-out: IC50",1840 ± 160 nM
N.N.[Cl][Pt][Cl] [Cisplatin],IC50,[7],1.53 ± 0.11 µg/mL
same,IC50,"[1]; Table 1, BEAS-2B normal cells",9.14 ± 1.41 µg/mL
same,IC50,"[1]; Table 2, BEAS-2B normal cells",7.36 ± 0.56 µg/mL
same,IC50,"[1]; Table 3, BEAS-2B normal cells",> 12 µg/mL
same,IC50,"[1]; Table 4, BEAS-2B normal cells",8.86 ± 1.32 µg/mL
same,IC50,[1]; [24],34900 ± 1160 nM
same,IC50,"[2]; Table 1, SPC-A-1",1.76 ± 0.40 µg/mL
same,IC50,"[2]; Table 2, SPC-A-1",3.10 ± 0.13 µg/mL
same,IC50,"[2]; Table 3, SPC-A-1",3.06 ± 1.07 µg/mL
same,IC50,"[2]; Table 4, SPC-A-1",2.49 ± 0.07 µg/mL
same,IC50,[2]; [25],21400 ± 350 nM
same,IC50,[8],1.97 ± 1.30 µg/mL
same,IC50,[9],2.85 ± 0.272 µg/mL
same,IC50,"[4]; Table 1, A549",3.83 ± 0.79 µg/mL
same,IC50,"[4]; Table 2, A-549",4.99 ± 0.08 µg/mL
same,IC50,"[4]; Table 3, A549",3.02 ± 0.59 µg/mL
same,IC50,"[4]; Table 4, A549",2.28 ± 0.57 µg/mL
same,IC50,"[4]; Table 5, A549, read-out: IC50",13500 ± 640 nM
same,IC50,[10],3.67 ± 0.97 µg/mL
same,IC50,"[5]; Table 2, A549/Taxol",4.29 ± 0.26 µg/mL
same,IC50,"[5]; Table 3, A549/Taxol",3.41 ± 0.47 µg/mL
same,IC50,"[5]; Table 4, A549/Taxol",4.13 ± 0.86 µg/mL
same,IC50,[5]; [26],15000 ± 930 nM
same,IC50,[11],3.16 ± 0.97 µg/mL
same,IC50,[12],3.78 ± 0.79 µg/mL
same,IC50,[13],2.00 ± 0.52 µg/mL
same,IC50,"[6]; Table 1, NCI-H520",6.69 ± 1.46 µg/mL
same,IC50,"[6]; Table 2, NCI-H520",3.12 ± 0.18 µg/mL
same,IC50,"[6]; Table 3, NCI-H520",3.75 ± 0.52 µg/mL
same,IC50,"[6]; Table 4, NCI-H520",3.11 ± 0.22 µg/mL
same,IC50,[6]; [27],12000 ± 600 nM
same,IC50,[14],1.38 ± 0.23 µg/mL
same,IC50,[15],0.16 ± 0.01 µg/mL
same,IC50,[16],5.29 ± 0.48 µg/mL
same,IC50,[17],2.00 ± 0.93 µg/mL
same,IC50,[18],1.14 ± 0.152 µg/mL
cucurbitacin B [Compound 4],IC50,[1]; [24],14400 ± 1360 nM
same,IC50,[2]; [25],16 nM
same,IC50,[3],≤ 30 nM
same,IC50,"[4]; Table 5, A549, read-out: IC50",30 nM
same,IC50,[5]; [26],7 ± 1 nM
same,IC50,[6]; [27],2 nM
"CC(=O)OC(C)(C)C=CC(=O)C(C)(O)C1C(O)CC2(C)C3CC=C4C(CC(=O)OC4(C)C)C3(C)C(=O)CC12C (stereo not shown) [Compound 1, aquilarolide A]",IC50,[1]; [19],17900 ± 300 nM
same,IC50,[2]; [20],560 ± 20 nM
same,IC50,[4]; [21],350 ± 60 nM
same,IC50,[5]; [22],200 ± 10 nM
same,IC50,[6]; [23],160 ± 10 nM
